Assay results from patent US6319702A, “Nucleic acids encoding mutant human carboxypeptidase A enzymes” (Glaxo Wellcome, Inc., priority 1993, dated 2001).
Where two headings read alike, the source gives them in different places.

Assays:
[1] = Stability and biodistribution of prodrugs in vivo (HPLC of plasma and tissues); parameters: species or system mice (CD-1 nude; BALB/C where indicated)
[2] = target: T1, wild type human carboxypeptidase A1 (Homo sapiens, UniProt P15085); assay: Enzyme kinetics of prodrugs with wild type human carboxypeptidase A1 (coupled assay); assay type: biochemical
T1 sequence (P15085 111-419): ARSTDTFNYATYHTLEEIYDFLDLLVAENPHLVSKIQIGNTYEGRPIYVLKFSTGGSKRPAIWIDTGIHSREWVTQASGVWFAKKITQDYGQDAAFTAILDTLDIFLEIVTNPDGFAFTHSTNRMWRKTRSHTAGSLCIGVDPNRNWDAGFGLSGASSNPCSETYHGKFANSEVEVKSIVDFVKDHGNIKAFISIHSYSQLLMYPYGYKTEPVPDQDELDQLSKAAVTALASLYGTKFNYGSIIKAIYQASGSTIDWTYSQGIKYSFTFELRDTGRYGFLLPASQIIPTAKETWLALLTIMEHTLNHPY
Summary of the method: (§1)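 Coupled spectrophotometric assay: released methotrexate converted by excess carboxypeptidase G (17 milliunits) to its pteroate, followed at 315 nm (Δε 9.57 mM^-1 cm^-1). 25° C in 25 mM tris-HCl, 100 mM NaCl, pH 7.4; reaction started with wild-type or mutant carboxypeptidase A. Kinetic constants from initial velocities by Michaelis-Menten analysis.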

268ala = assay: Enzyme kinetics of prodrugs with 268ala mutant of human CPA1 (coupled assay); assay type: biochemical; conditions: 25° C., pH 7.4
Summary of the method: as §1

268gly = assay: Enzyme kinetics of prodrugs with 268gly mutant of human CPA1 (coupled assay); assay type: biochemical
Summary of the method: as §1

mutant enzyme = assay: Substrate behaviour with mutant enzyme; assay type: biochemical, human
Text: This type of compound is not useful for ADEPT.

[3] = mouse, in vivo, iv
in vivo = conditions: mouse, iv

CN(Cc1cnc2nc(N)nc(N)c2n1)c1ccc(C(=O)N[C@@H](CCC(=O)O)C(=O)N[C@@H](Cc2ccc(O)c(C3CCCC3)c2)C(=O)O)cc1 [Prodrug 13, N-(4-(((2,4-diamino-6-pteridinyl)methyl)methyamino)benzoyl)-L-glutam-1-yl-3-cyclopentyl-L-tyrosine]
concentration of prodrug in cecum ([1]; CECUM, 30 min, 50 mg/kg i.p. or i.v., CD-1 nude mice): 14.4 nmol/g
concentration of prodrug in cecum ([1]; CECUM, 120 min, 50 mg/kg i.p. or i.v., CD-1 nude mice): 4.8 nmol/g
concentration of prodrug in feces ([1]; FECES, 30 min, 50 mg/kg i.p. or i.v., CD-1 nude mice): 665.8 nmol/g
concentration of prodrug in feces ([1]; FECES, 120 min, 50 mg/kg i.p. or i.v., CD-1 nude mice): 738.4 nmol/g
concentration of prodrug in kidney ([1]; KIDNEY, 30 min, 50 mg/kg i.p. or i.v., CD-1 nude mice): 3.7 nmol/g
concentration of prodrug in kidney ([1]; KIDNEY, 120 min, 50 mg/kg i.p. or i.v., CD-1 nude mice): 0.5 nmol/g
concentration of prodrug in large intestine ([1]; LARGE INTESTINE, 30 min, 50 mg/kg i.p. or i.v., CD-1 nude mice): 7.9 nmol/g
concentration of prodrug in large intestine ([1]; LARGE INTESTINE, 120 min, 50 mg/kg i.p. or i.v., CD-1 nude mice): 12.5 nmol/g
concentration of prodrug in liver ([1]; LIVER, 30 min, 50 mg/kg i.p. or i.v., CD-1 nude mice): 47.7 nmol/g
concentration of prodrug in liver ([1]; LIVER, 120 min, 50 mg/kg i.p. or i.v., CD-1 nude mice): 129.0 nmol/g
concentration of prodrug in small intestine ([1]; SMALL INTESTINE, 30 min, 50 mg/kg i.p. or i.v., CD-1 nude mice): 373.7 nmol/g
concentration of prodrug in small intestine ([1]; SMALL INTESTINE, 120 min, 50 mg/kg i.p. or i.v., CD-1 nude mice): 322.1 nmol/g
concentration of prodrug in spleen ([1]; SPLEEN, 30 min, 50 mg/kg i.p. or i.v., CD-1 nude mice): 0.6 nmol/g
concentration of prodrug in spleen ([1]; SPLEEN, 120 min, 50 mg/kg i.p. or i.v., CD-1 nude mice): 0.2 nmol/g
stability in vivo (in words) ([1]; mice, 50 mg/kg): stable in vivo
remaining at 0.5 h ([1]; mouse, cecum, 50 mg/kg, CECUM, 30 min, 50 mg/kg i.p. or i.v., CD-1 nude mice, read-out: stability: percentage of material observed as intact prodrug, cecum): 100%
remaining at 2 h ([1]; mouse, cecum, 50 mg/kg, CECUM, 120 min, 50 mg/kg i.p. or i.v., CD-1 nude mice, read-out: stability: percentage of material observed as intact prodrug, cecum): 100%
remaining at 0.5 h ([1]; mouse, feces, 50 mg/kg, FECES, 30 min, 50 mg/kg i.p. or i.v., CD-1 nude mice, read-out: stability: percentage of material observed as intact prodrug, feces (converted)): 100%
remaining at 2 h ([1]; mouse, feces, 50 mg/kg, FECES, 120 min, 50 mg/kg i.p. or i.v., CD-1 nude mice, read-out: stability: percentage of material observed as intact prodrug, feces): 100%
remaining at 0.5 h ([1]; mouse, kidney, 50 mg/kg, KIDNEY, 30 min, 50 mg/kg i.p. or i.v., CD-1 nude mice, read-out: stability: percentage of material observed as intact prodrug, kidney): 100%
remaining at 2 h ([1]; mouse, kidney, 50 mg/kg, KIDNEY, 120 min, 50 mg/kg i.p. or i.v., CD-1 nude mice, read-out: stability: percentage of material observed as intact prodrug, kidney): 100%
remaining at 0.5 h ([1]; mouse, large intestine, 50 mg/kg, LARGE INTESTINE, 30 min, 50 mg/kg i.p. or i.v., CD-1 nude mice, read-out: stability: percentage of material observed as intact prodrug, large intestine): 100%
remaining at 2 h ([1]; mouse, large intestine, 50 mg/kg, LARGE INTESTINE, 120 min, 50 mg/kg i.p. or i.v., CD-1 nude mice, read-out: stability: percentage of material observed as intact prodrug, large intestine): 100%
remaining at 0.5 h ([1]; mouse, liver, 50 mg/kg, LIVER, 30 min, 50 mg/kg i.p. or i.v., CD-1 nude mice, read-out: stability: percentage of material observed as intact prodrug, liver (converted)): 100%
remaining at 2 h ([1]; mouse, liver, 50 mg/kg, LIVER, 120 min, 50 mg/kg i.p. or i.v., CD-1 nude mice, read-out: stability: percentage of material observed as intact prodrug, liver): 100%
concentration at 0.5 h ([1]; mouse, plasma, 50 mg/kg, PLASMA, 30 min, 50 mg/kg i.p. or i.v., CD-1 nude mice, read-out: concentration of prodrug in plasma): 3300 nM
remaining at 0.5 h ([1]; mouse, plasma, 50 mg/kg, PLASMA, 30 min, 50 mg/kg i.p. or i.v., CD-1 nude mice, read-out: stability: percentage of material observed as intact prodrug, plasma): 100%
concentration at 2 h ([1]; mouse, plasma, 50 mg/kg, PLASMA, 120 min, 50 mg/kg i.p. or i.v., CD-1 nude mice, read-out: concentration of prodrug in plasma): 600 nM
remaining at 2 h ([1]; mouse, plasma, 50 mg/kg, PLASMA, 120 min, 50 mg/kg i.p. or i.v., CD-1 nude mice, read-out: stability: percentage of material observed as intact prodrug, plasma): 100%
remaining at 0.5 h ([1]; mouse, small intestine, 50 mg/kg, SMALL INTESTINE, 30 min, 50 mg/kg i.p. or i.v., CD-1 nude mice, read-out: stability: percentage of material observed as intact prodrug, small intestine): 100%
remaining at 2 h ([1]; mouse, small intestine, 50 mg/kg, SMALL INTESTINE, 120 min, 50 mg/kg i.p. or i.v., CD-1 nude mice, read-out: stability: percentage of material observed as intact prodrug, small intestine): 100%
remaining at 0.5 h ([1]; mouse, spleen, 50 mg/kg, SPLEEN, 30 min, 50 mg/kg i.p. or i.v., CD-1 nude mice, read-out: stability: percentage of material observed as intact prodrug, spleen): 100%
remaining at 2 h ([1]; mouse, spleen, 50 mg/kg, SPLEEN, 120 min, 50 mg/kg i.p. or i.v., CD-1 nude mice, read-out: stability: percentage of material observed as intact prodrug, spleen): 100%
human CPA catalyzed reaction (in words) [2]: not measureable
kcat/Km for human CPA1 compared with that of the L-phenylalanine prodrug (in words) [2]: much lower
substrate for wild type CPA (in words) [2]: not for the wild type enzyme
kcat (symbol ND) ([2]; Human CPA1, rate too slow to assay): ND (not determined; rate to slow assay. kcat ≤ 0.0005/sec.)
Km (268ala): 50 µM
kcat (268ala): 0.0006 s⁻¹
kcat/Km (268gly; 268Gly): 180000 M⁻¹ s⁻¹
Km (268gly; 268gly, 25° C., pH 7.4): 18 µM
kcat (268gly; 268gly, 25° C., pH 7.4): 3 s⁻¹
substrate for a mutant enzyme (in words) (mutant enzyme): good substrates for a mutant enzyme
maximum tolerated dose (MTD) [3]: > 50 mg/kg
MTD (in vivo): ≥ 50 mg/kg
